Assay results: patent publication US20240191177A1, “GROWTH PROMOTER FOR LACTIC ACID COCCI” (KIRIN HOLDINGS KABUSHIKI KAISHA, priority 2002, published 2024)

What was measured:
Format in all cases: cell-based
[1] = test system: Lactococcus lactis subsp. lactis JCM5805 strain; assay: Growth promoting effect, GM17 medium, aerobic cultivation (OD600); conditions: 0.5 to 2% by mass, 30° C. 24 hours, FIG. 4
Description: (§1) The lactic acid coccus described in Example 1, item (1), A was used.
The medium used was GM17 medium. […] Next, the bacterial cells were inoculated (seeded) so that the concentration of the bacterial cells was 0.1% (v/v) with respect to 10 ml of the prepared medium, and the medium inoculated with the bacterial cells was placed in an automatic cultivation searching device OT-201 (Oriental Instruments; sometimes referred to as “bioplotter” herein), and cultivated at 30° C. for 24 hours (stirring intensity condition: Medium).
(§2) Measurement was performed in a similar manner as described in Example 1, item (1), C.
(§3) Analysis was performed in a similar manner as described in Example 1, item (1), D.

[2] = test system: Lactococcus lactis subsp. lactis JCM5805 strain; assay: Growth promoting effect, MRS medium, aerobic cultivation (OD600); conditions: 0.5 to 2.0% by mass, 30° C. 24 hours, FIG. 2
Description: A Lactococcus lactis subsp. lactis JCM5805 strain was used as the lactic acid coccus. The medium used was MRS medium. […] Next, the bacterial cells were inoculated (seeded) so that the concentration of the bacterial cells was 0.1% (v/v) with respect to 10 ml of the medium, and the medium inoculated with the bacterial cells was placed in an automatic cultivation searching device OT-201 (Oriental Instruments: sometimes referred to as “bioplotter” herein), and cultivated at 30° ° C. for 24 hours (stirring intensity condition: Medium). The bacteria were counted by measuring the OD600 (turbidity) of the medium using an absorbance meter (Biochrom GeneQuant 1300). Measured values were expressed as mean±standard error. One-way analysis of variance was followed by Tukey's test, and cases where p<0.05 relative to the control group were evaluated as having a significant difference.

[3] = test system: Lactococcus lactis subsp. lactis JCM5805 strain; assay: Growth promoting effect, GM17 medium, anaerobic cultivation (OD600); conditions: 0.5 to 2% by mass, 30° C. 24 hours, FIG. 3
Excerpt: as §1
The medium used was a medium obtained by adding 20 g/L of glucose to M17 medium (Difco M17 Broth, BD; the composition thereof is indicated in Table 2; the same applies hereinafter in the present specification) (sometimes referred to as “GM17 medium” herein). […] Next, the bacterial cells were inoculated (seeded) in a 15-ml conical tube (FALCON) so that the concentration of the bacterial cells was 0.1% (v/v) with respect to 10 ml of the prepared medium, and cultivated at 30° ° C. for 24 hours in an incubator (TOKYO […] CO., LTD.) (static cultivation).
as §2, §3

[4] = test system: Lactococcus lactis subsp. lactis JCM5805 strain; assay: Growth promoting effect, MRS medium, anaerobic cultivation (OD600)
Description: A Lactococcus lactis subsp. lactis JCM5805 strain was used as the lactic acid coccus.
The bacteria were counted by measuring the OD600 (turbidity) of the medium using an absorbance meter (Biochrom GeneQuant 1300).
Measured values were expressed as mean±standard error. One-way analysis of variance was followed by Tukey's test, and cases where p<0.05 relative to the control group were evaluated as having a significant difference.

Pediococcus acidilactici = assay: Growth promoting effect on lactic acid cocci of the genus Pediococcus, MRS medium, anaerobic (Example 6); conditions: strain JCM8797, MRS medium, αKG 0.1 to 4 or 1 to 4% by mass, malic acid 0.1 to 2 or 1 to 2% by mass, FIG. 8
Description: (§4) The lactic acid cocci of the genus Pediococcus indicated in Table 5 were used as the bacterial cells.
(§5) Cultivation was performed in a similar manner as described in Example 1, item (1), B (i), except that α-ketoglutaric acid (concentrations shown in FIG. 8A (0.1 to 4% by mass) and FIG. 8C (1 to 4% by mass)) and malic acid (concentrations shown in FIG. 8B (0.1 to 2% by mass) and FIG. 8D (1 to 2% by mass)) were each added, as the dicarboxylic acids, to the medium (anaerobic cultivation).
as §2, §3

Pediococcus damnosus = assay: as above; conditions: strain JCM5886, MRS medium, αKG 0.1 to 4 or 1 to 4% by mass, malic acid 0.1 to 2 or 1 to 2% by mass, FIG. 8
Description: as §4, §5, §2, §3

[5] = 0.01 to 4.0% by mass, 30° C. 24 hours, FIG. 1A/1C

**Q.** With `O=C(O)CCC(=O)C(=O)O` [αKG, α-ketoglutaric acid] as the compound, how does the “growth of the lactic acid coccus (OD600) as compared with the control” value [1] read?
**A.** promoted in a concentration-dependent manner

**Q.** What about the “growth of the lactic acid coccus (OD600) as compared with the control” value [2] of the same compound?
**A.** significantly promoted in a concentration-dependent manner

**Q.** What about the “growth of the lactic acid coccus (OD600) as compared with the control” value [3] of the same compound?
**A.** significantly promoted

**Q.** What about the “growth of the lactic acid coccus (OD600) as compared with the control” value [4, 5] of the same compound?
**A.** significantly promoted in a concentration-dependent manner

**Q.** What about the “growth of the lactic acid cocci belonging to the genus Pediococcus (OD600) as compared with the control” value (Pediococcus acidilactici) of the same compound?
**A.** significantly promoted in a concentration-dependent manner

**Q.** And the “growth of the lactic acid cocci belonging to the genus Pediococcus (OD600) as compared with the control” value (Pediococcus damnosus)?
**A.** significantly promoted in a concentration-dependent manner

**Q.** `O=C(O)CC(O)(CC(=O)O)C(=O)O` [citric acid, reference compound] was tested. Which “growth of the lactic acid coccus (OD600) as compared with the control” value ([4]; citric acid 0.25 to 1% by mass, FIG. 7) did it give?
**A.** significantly promoted

**Q.** `O=C(O)CC(O)C(=O)O` (stereo not shown) [malic acid] was tested. Which “growth of the lactic acid coccus (OD600) as compared with the control” value [1] did it give?
**A.** promoted in a concentration-dependent manner

**Q.** What about the “growth of the lactic acid coccus (OD600) as compared with the control” value [2] of the same compound?
**A.** significantly promoted in a concentration-dependent manner

**Q.** And the “growth of the lactic acid coccus (OD600) as compared with the control” value [3]?
**A.** significantly promoted

**Q.** What about the “growth of the lactic acid coccus (OD600) as compared with the control” value [4, 5] of the same compound?
**A.** significantly promoted in a concentration-dependent manner

**Q.** And the “growth of the lactic acid cocci belonging to the genus Pediococcus (OD600) as compared with the control” value (Pediococcus acidilactici)?
**A.** significantly promoted in a concentration-dependent manner

**Q.** What about the “growth of the lactic acid cocci belonging to the genus Pediococcus (OD600) as compared with the control” value (Pediococcus damnosus) of the same compound?
**A.** significantly promoted in a concentration-dependent manner
